Two molecules from paper PMC3878165 (Bioorganic & Medicinal Chemistry Letters, 2013) can be followed below.

Experiment [1] has as its target melatonin MT1 receptor (Homo sapiens, UniProt P48039). In kind it is binding.
The subject of experiment [2] is Eurofins lead-profiling screen. In kind it is binding.
The target of experiment [3] is PLpro (Severe acute respiratory syndrome coronavirus, UniProt P0C6U8). In words: biochemical. On the set-up: species or system SARS-CoV.

Where only a bound is given, the exact number is not on record here.

melatonin MT1 receptor, sequence (P48039 whole entry): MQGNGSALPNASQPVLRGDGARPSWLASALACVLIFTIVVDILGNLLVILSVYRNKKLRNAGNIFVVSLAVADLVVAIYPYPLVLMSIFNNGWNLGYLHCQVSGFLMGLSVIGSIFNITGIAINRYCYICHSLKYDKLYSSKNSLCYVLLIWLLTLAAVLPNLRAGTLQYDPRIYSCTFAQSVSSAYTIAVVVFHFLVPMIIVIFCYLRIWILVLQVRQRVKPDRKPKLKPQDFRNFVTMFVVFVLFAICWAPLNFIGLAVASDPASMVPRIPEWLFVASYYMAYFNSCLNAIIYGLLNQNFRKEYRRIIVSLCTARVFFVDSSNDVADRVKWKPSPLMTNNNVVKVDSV

Take `O=C(Nc1ccc(N(Cc2ccsc2)C(=O)Cn2nnc3ccccc32)cc1)C1CC1` [16e]: the “melatonin MT1 receptor activity in words” value in experiment [1] was “modest activity”. Besides, in experiment [2], the “Eurofins Profiler Screen result in words” value was “highly selective”.

With `CCC(C)(C)NC(=O)[C@@H](c1ccn(C)c1)N(C(=O)Cn1nnc2ccccc21)c1ccc(NC(C)=O)cc1` [compound 7], the 50% inhibitory concentration (IC50) – broadly, the midpoint of a concentration-inhibition curve – in experiment [3] is greater than 60 µM.
